From patent publication US6071917A, “N-benzenesulphonyl-L-proline derivatives as bradykinin B2 antagonists” (Fournier Industrie Et Sante, priority 1996, dated 2000)
Structures can show the parent of a compound that is named as a salt.

Target: T1, guinea-pig B2 receptor (Cavia porcellus, UniProt O70526)
T1 construct: Ileum segments are isolated from male guinea-pigs; tissue Iffa Credo, l'Arbresle, France (supplier of the animals); host or cells: ileum membranes of male Dunkin-Hartley guinea-pigs
T1 sequence (O70526 1-372): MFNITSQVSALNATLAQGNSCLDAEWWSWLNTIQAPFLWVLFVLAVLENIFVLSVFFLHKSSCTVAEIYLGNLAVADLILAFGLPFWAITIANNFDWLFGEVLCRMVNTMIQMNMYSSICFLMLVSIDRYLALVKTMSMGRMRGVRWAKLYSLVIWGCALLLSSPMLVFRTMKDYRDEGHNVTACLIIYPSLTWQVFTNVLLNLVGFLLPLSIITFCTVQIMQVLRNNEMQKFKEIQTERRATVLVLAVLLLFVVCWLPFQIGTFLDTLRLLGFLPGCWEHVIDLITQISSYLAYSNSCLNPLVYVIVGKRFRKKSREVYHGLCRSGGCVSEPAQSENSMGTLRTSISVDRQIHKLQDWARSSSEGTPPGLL
Test: [3H]-bradykinin binding to guinea-pig ileum membranes
Details: test compound at 10^-6 M; [3H]-bradykinin 120 pM; 50 μg ileum membrane protein; 90 min at 20° C.; read-out: Activity (%): percentage inhibition of the binding of [3H]-bradykinin
Experimental: The following pharmacological test is used: Ileum segments are isolated from male guinea-pigs [of the Dunkin-Hartley strain (Iffa Credo, l'Arbresle, France)] and ground in the following TES buffer: TES 25 mM, 1,10-phenanthroline 1 mM (pH 6.8), bacitracin 140 μg/ml, BSA 1 g/l. The membranes are then isolated by centrifugation (18,000 rpm; 20 min; 4° C.). The binding studies are carried out in this TES buffer using [^3 H]-bradykinin (120 pM) and 50 μg of membrane protein per test (final volume 500 μl) with an equilibrium time of 90 min at 20° C. The percentage inhibition of the binding of [^3 H]-bradykinin is then determined in the presence of one of the test compounds according to the invention at a concentration of 10^-6 M.
The results obtained from these tests (shown as "activity") are collated in Table I below with reference to the Examples given in the description.

SMILES	inhibition at 1 µM
Cc1cc(C)c2cccc(OCc3c(Cl)ccc(S(=O)(=O)N4CCC[C@H]4C(=O)NCc4cccc(C(=N)N)c4)c3Cl)c2n1 [Example 2, 1-[[3-[(2,4-Dimethylquinolin-8-yl)oxymethyl]-2,4-dichlorophenyl]sulfonyl]-N-[3-(aminoiminomethyl)phenylmethyl]-2(S)-pyrrolidinecarboxamide dihydrochloride]	100%
Cc1cc(C)c2cccc(OCc3c(Cl)ccc(S(=O)(=O)N4CCC[C@H]4C(=O)N(C)Cc4ccc(C(=N)N)cc4)c3Cl)c2n1 [Example 4, 1-[[3-[(2,4-Dimethylquinolin-8-yl)oxymethyl]-2,4-dichlorophenyl]sulfonyl]-N-methyl-N-[4-(aminoiminomethyl)phenylmethyl]-2(S)-pyrrolidinecarboxamide dihydrochloride]	97.8%
Cc1cc(C)c2cccc(OCc3c(Cl)ccc(S(=O)(=O)N4CCC[C@H]4C(=O)NCc4ccc(C(=N)N)cc4)c3Cl)c2n1 [Example 6, 1-[[3-[(2,4-Dimethylquinolin-8-yl)oxymethyl]-2,4-dichlorophenyl]sulfonyl]-N-[4-(aminoiminomethyl)phenylmethyl]-2(S)-pyrrolidinecarboxamide bis(methanesulfonate)]	100%
Cc1ccc2cccc(OCc3c(Cl)ccc(S(=O)(=O)N4CCC[C@H]4C(=O)NCc4ccc(C(=N)N)cc4)c3Cl)c2n1 [Example 8, 1-[[3-[(2-Methylquinolin-8-yl)oxymethyl]-2,4-dichlorophenyl]sulfonyl]-N-[4-(aminoiminomethyl)phenylmethyl]-2(S)-pyrrolidinecarboxamide dihydrochloride]	96.6%
Cc1ccc2cccc(OCc3c(Cl)ccc(S(=O)(=O)N4CCC[C@H]4C(=O)Nc4cccc(C(=N)N)c4)c3Cl)c2n1 [Example 10, 1-[[3-[(2-Methylquinolin-8-yl)oxymethyl]-2,4-dichlorophenyl]sulfonyl]-N-[3-(aminoiminomethyl)phenyl]-2(S)-pyrrolidinecarboxamide dihydrochloride]	100%
Cc1cc(C)c2cccc(OCc3c(Cl)ccc(S(=O)(=O)N4CCC[C@H]4C(=O)N4CCN(C(=O)c5ccc(C(=N)N)cc5)CC4)c3Cl)c2n1 [Example 12, 1-[[3-[(2,4-Dimethylquinolin-8-yl)oxymethyl]-2,4-dichlorophenyl]sulfonyl]-2(S)-[[4-[4-(aminoiminomethyl)benzoyl]piperazin-1-yl]carbonyl]pyrrolidine dihydrochloride]	99.3%

Next, values leading:

inhibition at 1 µM	SMILES
100%	Cc1cc(C)c2cccc(OCc3c(Cl)ccc(S(=O)(=O)N4CCC[C@H]4C(=O)N4CCN(C(=O)Cc5ccc(C(=N)N)cc5)CC4)c3Cl)c2n1 [Example 14, 1-[[3-[(2,4-Dimethylquinolin-8-yl)oxymethyl]-2,4-dichlorophenyl]sulfonyl]-(S)-[[4-[2-[4-(aminoiminomethyl)phenyl]-1-oxoethyl]piperazin-1-yl]carbonyl]pyrrolidine dihydrochloride]
100%	Cc1cc(C)c2cccc(OCc3c(Cl)ccc(S(=O)(=O)N4CCC[C@H]4C(=O)N4CCN(C(=O)COc5ccc(C(=N)N)cc5)CC4)c3Cl)c2n1 [Example 16, 1-[[3-[(2,4-Dimethylquinolin-8-yl)oxymethyl]-2,4-dichlorophenyl]sulfonyl]-2(S)-[[4-[2-[4-(aminoiminomethyl)phenoxyl]-1-oxoethyl]piperazin-1-yl]carbonyl]pyrrolidine dihydrochloride]
100%	Cc1ccc2cccc(OCc3c(Cl)ccc(S(=O)(=O)N4CCC[C@H]4C(=O)N4CCN(C(=O)c5ccc(C(=N)N)cc5)CC4)c3Cl)c2n1 [Example 18, 1-[[3-[(2-Methylquinolin-8-yl)oxymethyl]-2,4-dichlorophenyl]sulfonyl]-2(S)-[[4-[4-(aminoiminomethyl)benzoyl]piperazin-1-yl]carbonyl]pyrrolidine dihydrochloride]
100%	Cc1ccc2cccc(OCc3c(Cl)ccc(S(=O)(=O)N4CCC[C@H]4C(=O)N4CCN(C(=O)Cc5ccc(C(=N)N)cc5)CC4)c3Cl)c2n1 [Example 20, 1-[[3-[(2-Methylquinolin-8-yl)oxymethyl]-2,4-dichlorophenyl]sulfonyl]-2(S)-[[4-[2-[4-(aminoiminomethyl)phenyl-1-oxoethyl]piperazin-1-yl]carbonyl]pyrrolidinedihydrochloride]
100%	Cc1ccc2cccc(OCc3c(Cl)ccc(S(=O)(=O)N4CCC[C@H]4C(=O)N4CCN(C(=O)COc5ccc(C(=N)N)cc5)CC4)c3Cl)c2n1 [Example 22, 1-[[3-[(2-Dimethylquinolin-8-yl)oxymethyl]-2,4-dichlorophenyl]sulfonyl]-2(S)-[4-[2-[4-(aminoiminomethyl)phenoxyl-1-oxoethyl]piperazin-1-yl]carbonyl]pyrrolidine dihydrochloride]
98.9%	Cc1ccc2cccc(OCc3c(Cl)ccc(S(=O)(=O)N4CCC[C@H]4C(=O)NC4CCN(C(=O)c5ccc(C(=N)N)cc5)CC4)c3Cl)c2n1 [Example 24]
100%	Cc1cc(C)c2cccc(OCc3c(Cl)ccc(S(=O)(=O)N4CCC[C@H]4C(=O)NC4CCN(C(=O)c5ccc(C(=N)N)cc5)CC4)c3Cl)c2n1 [Example 26, 1-[[3-[(2,4-Dimethylquinolin-8-yl)oxymethyl]-2,4-dichlorophenyl]sulfonyl]-N-[1-[4-(aminoiminomethyl)benzoyl]piperidin-4-yl]-2(S)-pyrrolidinecarboxamide bis(methanesulfonate)]
98%	Cc1cc(C)c2cccc(OCc3c(Cl)ccc(S(=O)(=O)N4CCC[C@H]4C(=O)NC4CCN(C(=O)COc5ccc(C(=N)N)cc5)CC4)c3Cl)c2n1 [Example 28]
99.3%	Cc1cc(C)c2cccc(OCc3c(Cl)ccc(S(=O)(=O)N4CCC[C@H]4C(=O)NCC4CCN(C(=O)COc5ccc(C(=N)N)cc5)CC4)c3Cl)c2n1 [Example 30, 1-[[3-[(2,4-Dimethylquinolin-8-yl)oxymethyl]-2,4-dichlorophenyl]sulfonyl]-N-[[1-[2-[4-(aminoiminomethyl)phenoxy]-1-oxoethyl]piperidin-4-yl]methyl]-2(S)-pyrrolidinecarboxamide bis(methanesulfonate)]
